{"source": "ChEMBL document CHEMBL3621135", "about": "(ACS Med Chem Lett, 2015)", "key": {"Rattus norvegicus [1]": {"tested_on": "Rattus norvegicus", "test": "Reduction in red blood cell mass in rat at 15 mg/kg/day for 2 weeks", "type": "functional, organism-based"}, "[2]": {"test": "Half in mouse liver microsomes", "type": "ADME"}, "[3]": {"biological_target": "Tyrosine-protein kinase JAK1 (Homo sapiens, UniProt P23458)", "sequence (P23458 whole entry)": "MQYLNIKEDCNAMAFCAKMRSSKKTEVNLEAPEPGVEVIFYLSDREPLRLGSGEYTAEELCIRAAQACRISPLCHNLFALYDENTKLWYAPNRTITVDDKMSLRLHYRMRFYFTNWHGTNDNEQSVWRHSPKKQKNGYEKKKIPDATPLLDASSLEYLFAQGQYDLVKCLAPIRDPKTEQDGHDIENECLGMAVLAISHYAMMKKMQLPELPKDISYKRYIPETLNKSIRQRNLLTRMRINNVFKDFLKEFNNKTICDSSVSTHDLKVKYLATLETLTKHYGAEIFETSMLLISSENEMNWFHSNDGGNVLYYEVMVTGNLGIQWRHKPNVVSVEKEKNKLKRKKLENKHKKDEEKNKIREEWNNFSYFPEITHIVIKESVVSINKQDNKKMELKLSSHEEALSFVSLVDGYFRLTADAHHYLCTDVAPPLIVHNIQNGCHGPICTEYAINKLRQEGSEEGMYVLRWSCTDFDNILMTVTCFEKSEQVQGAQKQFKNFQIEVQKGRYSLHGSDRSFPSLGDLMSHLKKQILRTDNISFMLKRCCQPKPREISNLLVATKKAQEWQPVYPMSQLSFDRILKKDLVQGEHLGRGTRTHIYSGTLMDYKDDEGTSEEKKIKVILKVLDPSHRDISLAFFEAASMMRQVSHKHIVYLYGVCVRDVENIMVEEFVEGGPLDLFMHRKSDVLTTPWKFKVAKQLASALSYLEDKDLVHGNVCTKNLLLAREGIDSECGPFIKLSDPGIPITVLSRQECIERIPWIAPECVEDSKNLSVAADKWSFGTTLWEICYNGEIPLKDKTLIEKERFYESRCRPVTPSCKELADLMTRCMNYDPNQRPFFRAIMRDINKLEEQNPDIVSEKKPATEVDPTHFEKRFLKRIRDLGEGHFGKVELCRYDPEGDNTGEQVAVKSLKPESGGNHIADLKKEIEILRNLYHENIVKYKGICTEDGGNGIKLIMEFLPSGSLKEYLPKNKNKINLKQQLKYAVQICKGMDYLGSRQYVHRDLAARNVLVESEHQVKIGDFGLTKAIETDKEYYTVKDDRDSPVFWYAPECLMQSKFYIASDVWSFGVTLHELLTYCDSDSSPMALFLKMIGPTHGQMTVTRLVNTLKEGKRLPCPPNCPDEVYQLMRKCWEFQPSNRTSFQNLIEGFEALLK", "test": "Binding affinity to JAK1 (unknown origin) assessed as dissociation constant"}, "[4]": {"test": "Clearance in cynomolgus monkey at 1 mg/kg, iv and 1 mg/kg, po", "type": "ADME, organism-based, Macaca fascicularis", "conditions": "in vivo"}, "Rattus norvegicus [5]": {"tested_on": "Rattus norvegicus", "test": "Reduction in reticulocytes in rat at 15 mg/kg/day for 2 weeks", "type": "functional, organism-based"}, "[6]": {"test": "AUC (0 to 8 hrs) in mouse pharamcodynamic model at 30 mg/kg, po", "type": "ADME, organism-based", "set-up": "dose 30 mg/kg, time < 8 hr, route oral", "conditions": "in vivo"}, "[7]": {"test": "Oral bioavailability in rat at 1 mg/kg", "type": "ADME, organism-based", "conditions": "in vivo"}, "[8]": {"test": "AUC (0 to 24 hrs) in rat assessed as drug tolerability at 15 mg/kg/day for 2 weeks measured on day 14", "type": "ADME, organism-based", "set-up": "time < 24 hr, dose 15 mg/kg/day", "conditions": "in vivo"}, "JAK3/JAK1": {"biological_target": "JAK3/JAK1 (Homo sapiens, UniProt P23458+P52333)", "test": "Inhibition of JAK1/JAK3 in T cells (unknown origin) assessed as reduction in IL2-mediated cell proliferation", "type": "cell-based"}, "[9]": {"biological_target": "T1, Tyrosine-protein kinase JAK2 (Homo sapiens, UniProt O60674)", "T1 sequence (O60674 whole entry)": "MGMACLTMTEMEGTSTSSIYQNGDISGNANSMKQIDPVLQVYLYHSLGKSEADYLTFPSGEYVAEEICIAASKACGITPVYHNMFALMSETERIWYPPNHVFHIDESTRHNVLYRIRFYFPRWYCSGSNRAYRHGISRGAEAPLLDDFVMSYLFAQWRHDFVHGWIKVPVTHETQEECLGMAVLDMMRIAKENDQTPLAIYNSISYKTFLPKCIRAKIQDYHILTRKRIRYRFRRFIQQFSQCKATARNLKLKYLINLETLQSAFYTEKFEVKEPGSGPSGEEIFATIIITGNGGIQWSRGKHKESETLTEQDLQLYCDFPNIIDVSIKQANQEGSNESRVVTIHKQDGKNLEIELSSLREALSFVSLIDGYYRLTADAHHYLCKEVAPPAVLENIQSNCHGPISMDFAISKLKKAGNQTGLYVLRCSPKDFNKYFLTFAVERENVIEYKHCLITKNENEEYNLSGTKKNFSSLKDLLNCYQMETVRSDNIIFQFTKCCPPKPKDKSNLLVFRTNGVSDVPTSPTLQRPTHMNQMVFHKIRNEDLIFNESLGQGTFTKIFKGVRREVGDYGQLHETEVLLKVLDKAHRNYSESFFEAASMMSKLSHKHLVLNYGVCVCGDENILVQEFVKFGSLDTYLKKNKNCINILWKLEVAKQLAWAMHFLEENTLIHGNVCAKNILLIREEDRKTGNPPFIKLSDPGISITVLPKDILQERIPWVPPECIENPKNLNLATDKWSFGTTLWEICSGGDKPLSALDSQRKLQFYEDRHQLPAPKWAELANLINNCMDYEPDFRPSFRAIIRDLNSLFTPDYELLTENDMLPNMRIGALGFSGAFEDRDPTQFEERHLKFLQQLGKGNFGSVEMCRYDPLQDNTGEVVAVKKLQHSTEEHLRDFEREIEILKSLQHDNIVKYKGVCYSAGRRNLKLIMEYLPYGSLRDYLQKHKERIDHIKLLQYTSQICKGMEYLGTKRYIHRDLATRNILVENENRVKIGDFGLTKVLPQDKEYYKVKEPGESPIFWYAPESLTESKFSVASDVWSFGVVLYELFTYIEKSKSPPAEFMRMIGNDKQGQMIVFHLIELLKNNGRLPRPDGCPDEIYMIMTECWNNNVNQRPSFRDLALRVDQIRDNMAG", "test": "Inhibition of JAK2 in human SET2 cells assessed as reduction in STAT5 phosphorylation incubated for 2 hrs by Western blot method", "type": "cell-based"}, "Mus musculus [10]": {"tested_on": "Mus musculus", "test": "Inhibition of JAK2 in mouse pharamcodynamic model assessed as reduction in STAT5 phosphorylation at 5 mg/kg, po measured after 8 hrs", "type": "functional"}, "[11]": {"test": "Volume of distribution at steady state in dog at 0.2 mg/kg, iv and 0.2 mg/kg, po", "type": "ADME, organism-based, Canis lupus familiaris", "conditions": "in vivo, read-out: Vdss"}, "[12]": {"biological_target": "T2, Nuclear receptor subfamily 1 group I member 2 (Homo sapiens, UniProt O75469)", "T2 sequence (O75469 whole entry)": "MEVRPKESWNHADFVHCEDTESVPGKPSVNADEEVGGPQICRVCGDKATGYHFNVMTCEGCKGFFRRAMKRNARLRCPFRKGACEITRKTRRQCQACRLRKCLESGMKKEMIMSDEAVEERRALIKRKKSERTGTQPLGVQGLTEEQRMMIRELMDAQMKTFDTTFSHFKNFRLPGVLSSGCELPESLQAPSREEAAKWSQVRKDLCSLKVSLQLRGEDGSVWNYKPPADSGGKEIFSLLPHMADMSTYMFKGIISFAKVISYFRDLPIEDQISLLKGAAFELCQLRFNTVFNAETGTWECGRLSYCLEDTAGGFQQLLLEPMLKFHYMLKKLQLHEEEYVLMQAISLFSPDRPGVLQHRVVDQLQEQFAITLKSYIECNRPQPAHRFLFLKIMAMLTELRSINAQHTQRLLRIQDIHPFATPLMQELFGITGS", "test": "Activation of PXR (unknown origin)", "type": "ADME"}, "[13]": {"biological_target": "T1, Tyrosine-protein kinase JAK2", "test": "Inhibition of recombinant JAK2 (unknown origin) using 5-FAM-KKKKEEIYFFFG-OH substrate and ATP incubated for 180 mins by […] method"}, "Phosphodiesterase 4": {"biological_target": "Phosphodiesterase 4 (Homo sapiens, UniProt P27815+Q08499+Q07343+Q08493)", "test": "Inhibition of PDE4 (unknown origin)", "type": "protein assay"}, "Mus musculus [14]": {"tested_on": "Mus musculus", "test": "Inhibition of JAK2 in mouse pharamcodynamic model assessed as reduction in STAT5 phosphorylation at 30 mg/kg, po after 18 hrs", "type": "functional, organism-based"}, "[15]": {"test": "Toxicity against human HepG2 cells", "type": "cell-based"}, "[16]": {"test": "Half life in rat at 1 mg/kg, iv and 1 mg/kg, po", "type": "ADME, organism-based", "conditions": "in vivo"}, "[17]": {"test": "Oral bioavailability in dog at 0.2 mg/kg", "type": "ADME, organism-based, Canis lupus familiaris", "conditions": "in vivo"}, "[18]": {"test": "Volume of distribution at steady state in mouse at 2 mg/kg, iv and 10 mg/kg, po", "type": "ADME, organism-based", "conditions": "in vivo, read-out: Vdss"}, "Homo sapiens": {"species": "Homo sapiens", "test": "Inhibition of sodium channel (unknown origin) at 10 uM at 1 and 4 Hz stimulation by patch clamp assay"}, "Mus musculus [19]": {"tested_on": "Mus musculus", "test": "Oral bioavailability in mouse at 10 mg/kg", "type": "ADME, organism-based", "conditions": "in vivo"}, "[20]": {"test": "Oral bioavailability in cynomolgus monkey at 1 mg/kg", "type": "ADME, organism-based, Macaca fascicularis", "conditions": "in vivo"}, "[21]": {"biological_target": "T1, Tyrosine-protein kinase JAK2", "test": "Binding affinity to JAK2 (unknown origin) assessed as dissociation constant"}, "[22]": {"test": "Antiproliferative activity against mouse CTLL-2 cells incubated for 72 hrs by [3H] thymidine incorporation assay", "type": "functional, cell-based"}, "[23]": {"test": "Clearance in rat at 1 mg/kg, iv and 1 mg/kg, po", "type": "ADME, organism-based", "conditions": "in vivo"}, "[24]": {"test": "Inhibition of CYP450 in human liver microsomes", "type": "ADME"}, "Rattus norvegicus [25]": {"tested_on": "Rattus norvegicus", "test": "Toxicity in rat assessed as drug tolerability up to 100 mg/kg", "type": "organism-based", "conditions": "in vivo"}, "hERG [26]": {"biological_target": "T3, hERG (Homo sapiens, UniProt Q12809)", "T3 sequence (Q12809 whole entry)": "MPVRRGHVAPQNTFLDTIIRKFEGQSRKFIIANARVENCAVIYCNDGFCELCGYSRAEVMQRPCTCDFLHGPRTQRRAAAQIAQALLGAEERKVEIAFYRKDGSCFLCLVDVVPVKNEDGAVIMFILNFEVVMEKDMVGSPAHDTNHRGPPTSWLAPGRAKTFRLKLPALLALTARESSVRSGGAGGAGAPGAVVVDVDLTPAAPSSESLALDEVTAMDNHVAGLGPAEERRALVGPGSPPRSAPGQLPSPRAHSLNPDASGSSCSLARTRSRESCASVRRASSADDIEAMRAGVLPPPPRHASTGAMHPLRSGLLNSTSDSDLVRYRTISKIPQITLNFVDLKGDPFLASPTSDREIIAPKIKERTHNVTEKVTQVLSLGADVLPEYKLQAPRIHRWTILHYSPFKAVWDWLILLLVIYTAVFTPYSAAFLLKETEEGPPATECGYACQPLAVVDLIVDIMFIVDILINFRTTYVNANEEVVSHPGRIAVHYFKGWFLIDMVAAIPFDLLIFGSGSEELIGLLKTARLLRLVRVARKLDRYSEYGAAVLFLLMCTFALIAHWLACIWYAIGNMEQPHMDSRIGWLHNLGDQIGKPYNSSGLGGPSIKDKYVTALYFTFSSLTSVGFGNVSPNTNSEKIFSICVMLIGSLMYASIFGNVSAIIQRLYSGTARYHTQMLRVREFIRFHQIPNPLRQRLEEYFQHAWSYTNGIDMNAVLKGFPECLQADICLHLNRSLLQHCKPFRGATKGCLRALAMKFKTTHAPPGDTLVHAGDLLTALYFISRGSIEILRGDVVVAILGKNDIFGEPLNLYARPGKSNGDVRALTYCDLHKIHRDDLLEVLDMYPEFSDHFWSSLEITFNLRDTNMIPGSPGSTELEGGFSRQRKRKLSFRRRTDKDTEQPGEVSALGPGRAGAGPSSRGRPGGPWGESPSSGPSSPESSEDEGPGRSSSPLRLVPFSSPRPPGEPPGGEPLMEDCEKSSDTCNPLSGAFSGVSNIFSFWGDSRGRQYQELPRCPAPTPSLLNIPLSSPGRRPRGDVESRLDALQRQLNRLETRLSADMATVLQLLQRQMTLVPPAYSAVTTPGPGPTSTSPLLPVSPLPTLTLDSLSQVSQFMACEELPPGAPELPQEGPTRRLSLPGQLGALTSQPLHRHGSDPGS", "test": "Inhibition of human ERG at 30 uM by patch clamp assay"}, "[27]": {"biological_target": "Tyrosine-protein kinase JAK2 (Mus musculus, UniProt Q62120)", "sequence (Q62120 whole entry)": "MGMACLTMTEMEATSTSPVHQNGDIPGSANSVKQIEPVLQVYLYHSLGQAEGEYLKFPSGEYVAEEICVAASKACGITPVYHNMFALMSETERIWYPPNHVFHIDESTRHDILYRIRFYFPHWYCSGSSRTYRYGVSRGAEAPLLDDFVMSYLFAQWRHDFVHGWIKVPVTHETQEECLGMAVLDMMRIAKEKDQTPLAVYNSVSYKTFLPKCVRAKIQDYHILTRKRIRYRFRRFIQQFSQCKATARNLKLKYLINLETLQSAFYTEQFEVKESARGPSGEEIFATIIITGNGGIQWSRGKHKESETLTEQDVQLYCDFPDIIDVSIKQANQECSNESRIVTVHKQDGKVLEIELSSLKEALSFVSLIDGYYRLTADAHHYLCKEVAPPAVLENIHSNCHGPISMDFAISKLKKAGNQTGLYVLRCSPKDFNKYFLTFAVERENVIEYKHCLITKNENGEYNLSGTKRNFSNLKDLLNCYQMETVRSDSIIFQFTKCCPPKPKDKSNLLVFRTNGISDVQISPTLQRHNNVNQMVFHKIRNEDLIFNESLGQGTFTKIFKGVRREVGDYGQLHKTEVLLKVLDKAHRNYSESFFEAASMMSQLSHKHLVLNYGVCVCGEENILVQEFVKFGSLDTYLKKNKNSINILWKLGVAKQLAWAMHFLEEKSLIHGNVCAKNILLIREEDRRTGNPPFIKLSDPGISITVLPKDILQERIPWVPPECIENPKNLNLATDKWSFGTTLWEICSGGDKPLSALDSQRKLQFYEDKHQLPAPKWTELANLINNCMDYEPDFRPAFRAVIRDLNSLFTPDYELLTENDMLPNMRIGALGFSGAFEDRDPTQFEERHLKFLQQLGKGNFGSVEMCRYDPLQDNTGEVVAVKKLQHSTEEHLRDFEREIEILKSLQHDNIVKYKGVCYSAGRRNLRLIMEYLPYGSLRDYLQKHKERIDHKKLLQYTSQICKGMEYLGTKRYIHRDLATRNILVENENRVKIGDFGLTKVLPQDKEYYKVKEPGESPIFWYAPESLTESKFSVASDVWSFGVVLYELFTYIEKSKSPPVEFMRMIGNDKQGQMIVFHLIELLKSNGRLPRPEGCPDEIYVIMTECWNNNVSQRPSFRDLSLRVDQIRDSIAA", "test": "Inhibition of JAK2 in mouse BAF3 cells assessed as reduction in STAT5 phosphorylation incubated for 2 hrs by Western blot method", "type": "cell-based"}, "hERG [28]": {"biological_target": "T3, hERG", "test": "Inhibition of human ERG channel at 30 uM"}, "MDA-MB-231": {"tested_on": "MDA-MB-231", "test": "Antiproliferative activity against human MDA-MB-231 cells incubated for 72 hrs by [3H] thymidine incorporation assay", "type": "functional, cell-based"}, "[29]": {"test": "AUC (0 to 72 hrs) in rat", "type": "ADME, organism-based", "set-up": "time < 72 hr", "conditions": "in vivo"}, "[30]": {"test": "Half in human liver microsomes", "type": "ADME"}, "[31]": {"test": "Antiproliferative activity against human SET2 cells incubated for 72 hrs by [3H] thymidine incorporation assay", "type": "functional, cell-based", "conditions": "SET-2"}, "[32]": {"test": "Inhibition of calcium channel (unknown origin) by patch clamp assay", "set-up": "species or system Homo sapiens"}, "[33]": {"test": "Half life in mouse at 2 mg/kg, iv and 10 mg/kg, po", "type": "ADME, organism-based", "conditions": "in vivo"}, "Salmonella typhimurium": {"tested_on": "Salmonella typhimurium", "test": "Mutagenicity in Salmonella typhimurium by Ames test", "type": "toxicity, organism-based", "conditions": "salmonella enterica subsp. enterica serovar typhimurium"}, "Mus musculus [34]": {"tested_on": "Mus musculus", "test": "Inhibition of JAK2 V617F mutant in mouse pharamcodynamic model expressing JAK2 V617F mutant assessed as reduction in STAT5 phosphorylation at 2 mg/kg, po measured up to 7 hrs", "type": "functional, organism-based"}, "[35]": {"biological_target": "Non-receptor tyrosine-protein kinase TYK2 (Homo sapiens, UniProt P29597)", "test": "Inhibition of recombinant TYK2 (unknown origin) by scintillation counting method"}}, "note": "Calls of active or inactive are those of the source. No cut-off for these calls is given here."}
{"smiles": "CCn1c(C(=O)N(C2CC2)C2CC2)cc2c3c(ncn3C)c(Nc3cc(C)n(C)n3)nc21", "note": "[BMS-911543]", "values": [{"measurement": "Activity", "setting": "Rattus norvegicus [1]", "result": "Active"}, {"measurement": "half-life", "setting": "[2]", "result": 1.8, "unit": "h"}, {"measurement": "Kd", "setting": "[3]", "result": 110, "unit": "nM"}, {"measurement": "clearance", "setting": "[4]", "result": 5.3, "unit": "mL/min/kg"}, {"measurement": "Activity", "setting": "Rattus norvegicus [5]", "result": "Active"}, {"measurement": "AUC(0-t) at 8 h", "setting": "[6]", "result": 109, "unit": "µM·h"}, {"measurement": "bioavailability", "setting": "[7]", "result": 100, "unit": "%"}, {"measurement": "AUC at 24 h", "setting": "[8]", "result": 3200, "unit": "µM·h"}, {"measurement": "IC50", "setting": "JAK3/JAK1", "result": 990, "unit": "nM"}, {"measurement": "IC50", "setting": "[9]", "result": 80, "unit": "nM"}, {"measurement": "inhibition in vivo at 5 mg/kg", "setting": "Mus musculus [10]", "result": 50, "unit": "%"}, {"measurement": "Vd", "setting": "[11]", "result": 1.6, "unit": "L/kg"}, {"measurement": "EC50", "setting": "[12]", "result": "> 50000", "unit": "nM"}, {"measurement": "IC50", "setting": "[13]", "result": 1.1, "unit": "nM"}, {"measurement": "IC50", "setting": "Phosphodiesterase 4", "result": 5600, "unit": "nM"}, {"measurement": "inhibition", "setting": "Mus musculus [14]", "result": "Active"}, {"measurement": "IC50", "setting": "[15]", "result": "> 50000", "unit": "nM"}, {"measurement": "half-life", "setting": "[16]", "result": 5, "unit": "h"}, {"measurement": "bioavailability", "setting": "[17]", "result": 82, "unit": "%"}, {"measurement": "Vd", "setting": "[18]", "result": 0.26, "unit": "L/kg"}, {"measurement": "inhibition", "setting": "Homo sapiens", "result": "< 10", "unit": "%"}, {"measurement": "F", "setting": "Mus musculus [19]", "result": 100, "unit": "%"}, {"measurement": "bioavailability", "setting": "[20]", "result": 53, "unit": "%"}, {"measurement": "Kd", "setting": "[21]", "result": 0.48, "unit": "nM"}, {"measurement": "IC50", "setting": "[22]", "result": 2900, "unit": "nM"}, {"measurement": "clearance", "setting": "[23]", "result": 0.7, "unit": "mL/min/kg"}, {"measurement": "IC50", "setting": "[24]", "result": "> 40000", "unit": "nM"}, {"measurement": "Activity", "setting": "Rattus norvegicus [25]", "result": "Non-toxic"}, {"measurement": "inhibition at 30 µM", "setting": "hERG [26]", "result": 20, "unit": "%"}, {"measurement": "IC50", "setting": "[27]", "result": 65, "unit": "nM"}, {"measurement": "inhibition at 30 µM", "setting": "hERG [28]", "result": 20, "unit": "%"}, {"measurement": "Activity", "setting": "MDA-MB-231", "result": "inactive"}, {"measurement": "AUC(0-t) at 72 h", "setting": "[29]", "result": 11300, "unit": "µM·h"}, {"measurement": "half-life", "setting": "[30]", "result": 0.817, "unit": "h"}, {"measurement": "IC50", "setting": "[31]", "result": 60, "unit": "nM"}, {"measurement": "IC50", "setting": "[32]", "result": "> 80000", "unit": "nM"}, {"measurement": "half-life", "setting": "[33]", "result": 5.1, "unit": "h"}, {"measurement": "Activity", "setting": "Salmonella typhimurium", "result": "Non-toxic"}, {"measurement": "inhibition", "setting": "Mus musculus [34]", "result": "Active"}, {"measurement": "IC50", "setting": "[35]", "result": 66, "unit": "nM"}]}
